92 sequences from publication PMC12057046, “Elucidation of short linear motif-based interactions of the MIT and rhodanese domains of the ubiquitin-specific protease 8” (Biology Direct, 2025) can be followed below.

The first assay relates to USP8 MIT domain. Description: Peptide-phage display-based deep mutational scanning (DMS), USP8 MIT domain. It counts as binding, human. The conditions noted are these: bait USP8_MIT__P40818_1_142; EFCAB12 (Q6NXP0) 2-17; pair of mutant with wild-type wt_00016 (MDDDYEAYHSLFLSLL); sheet S3.B_ProP-PD_pairs. The protocol:
The residues of these 16 amino acid-long wild-type peptides were substituted to all natural amino acid residues, except cysteine, in all positions (Supplementary Table S2A). The designed peptide sequences were reverse-translated to oligonucleotides optimized to the codon usage of E. coli. The required flanking regions (5´[…] and 3´[…]) were added for library construction. The library was generated as previously described.
Four rounds of phage selections were carried out using the second generation human disorderome library or the constructed deep mutational scanning library. At least three individual replicates were used for each bait protein. 10 µg of GST-tagged proteins or GST control (diluted in PBS from the stock of proteins kept in the purification elution buffer) were immobilized in 100 µL PBS on a 96-well MaxiSorp (Nunc) plate overnight at 4 °C. The plates were incubated with blocking buffer (with 0.5% BSA in PBS) for 1 h at 4 °C followed by washing with 0.05% Tween 20 in PBS four times. The naïve phage library (10^11 CFU) was diluted in 1/5th volume PEG/NaCl (20% PEG-8000, 0.4 M NaCl) and 1X PBS, incubated on ice for 10 min and centrifuged at 10,000 [drawing 3] g for 10 min. The pellet was resuspended in the volume of PBS (100 µL/ well). The GST-coated control plate was incubated with 100 µL library per well in PBS for 1 h at 4 °C to remove non-specific binders. The supernatant was transferred to the target wells and incubated for 2 h at 4 °C. The wells were washed five times with 0.05% Tween 20 in PBS and the bound phages were eluted with 100 µL per well log-phase E. coli OmniMAX by incubating at 37° C while shaking. After 30 min, M13KO7 helper phages were added and incubated for an additional 45 min. The bacterial cultures were transferred to 1 mL 2YT supplemented with 100 µg/mL carbenicillin, 30 µg/mL kanamycin and 0.3 mM IPTG and grew overnight at 37 °C while shaking. The following day the cultures were centrifuged for 10 min at 2,000 [drawing 4] g, 4 °C. 1/10th volume of 10 [drawing 5] PBS was added to adjust the pH and heated at 65 °C for 10 min. The phage pools from each round were used as in-phages for the next round of selections.
The samples were prepared for NGS as previously described. Peptide-coding regions of the enriched phage pools were amplified and barcoded using Phusion High-Fidelity PCR Master Mix (Thermo Fisher) for 22 cycles and confirmed by 2% agarose gel electrophoresis. The PCR products were normalized with 25 µL Mag-bind Total Pure NGS beads (Omega Biotek) and 10 µL of each eluted sample (Qiagen Elution Buffer) was pooled and cleaned-up with a PCR purification kit (Qiagen). The PCR product was confirmed by 2% agarose electrophoresis and the band was extracted with QIAquick Gel extraction Kit (Qiagen) and eluted with 30 µL TE buffer. The dsDNA was quantified using QuantiT PicoGreen dsDNA Assay Kit (Thermo Fisher) and sent for NGS (Illumina MiSeq v3, 1 × 150 bp read setup, 20% PhiX, NGI SciLifeLab facility, Sweden). The NGS data were demultiplexed, adapter regions were trimmed and sequences with an average quality of at least 20 were translated to peptide sequences. The NGS data were analysed using custom Python scripts. The total read NGS counts for each selection experiment of each peptide sequence were compiled and annotated in PepTools (https://slim.icr.ac.uk/tools/peptools/). Since ProP-PD is in essence a competition assay, the possibility of the input phage library influencing the selection outcome was explored. For this, the Pearson correlation coefficient, p-value and coefficient of determination were calculated for all peptide NGS count fractions in the library coverage vs. in the selections results (Supplementary Fig. S7; Supplementary Table S2B; Supplementary Table S3B; Supplementary Table S7B). Pearson correlation coefficient and p-value were calculated using Python’s SciPy library. […]
With MDDDYEDYHSLFLSLL [mut_04429], the hit_pair_ratio turned out to be 4.40.
The same measure, in the same setting: the same measure for MDDDYEEYHSLFLSLL [mut_04430]: 4.58.
The same measure, in the same setting: the value for MDDDYEFYHSLFLSLL [mut_04431] was 83.09; that for MDDDYEGYHSLFLSLL [mut_04432] was 1.19; that for MDDDYEIYHSLFLSLL [mut_04434] was 18.85.
Same read-out and setting: the value for MDDDYEKYHSLFLSLL [mut_04435] was 48.44.
Take MDDDYELYHSLFLSLL [mut_04436]: the hit_pair_ratio was determined as 7.38.
The same measure, in the same setting: the value for MDDDYEMYHSLFLSLL [mut_04437] was 59.15; that for MDDDYENYHSLFLSLL [mut_04438] was 2.33; that for MDDDYEPYHSLFLSLL [mut_04439] was 9.13.
Same read-out and setting: the value for MDDDYEQYHSLFLSLL [mut_04440] was 112.94; that for MDDDYERYHSLFLSLL [mut_04441] was 84.82; that for MDDDYESYHSLFLSLL [mut_04442] was 37.68.
MDDDYETYHSLFLSLL [mut_04443] registered a hit_pair_ratio of 112.94.
The same measure, in the same setting: the same measure for MDDDYEVYHSLFLSLL [mut_04444]: 28.27; for MDDDYFAYHSLFLSLL [mut_04413]: 168.96; for MDDDYGAYHSLFLSLL [mut_04414]: 33.85.
Same read-out and setting: the same measure for MDDDYHAYHSLFLSLL [mut_04415]: 84.48; for MDDDYIAYHSLFLSLL [mut_04416]: 56.54.
On to MDDDYLAYHSLFLSLL [mut_04418], for which the hit_pair_ratio is reported as 84.82.
As to MDDDYMAYHSLFLSLL [mut_04419], the hit_pair_ratio is listed as 112.64.
Take MDDDYNAYHSLFLSLL [mut_04420]: the hit_pair_ratio was 2.54.
On the same count and under the same terms, the same measure for MDDDYPAYHSLFLSLL [mut_04421]: 1.34; for MDDDYQAYHSLFLSLL [mut_04422]: 12.11; for MDDDYSAYHSLFLSLL [mut_04424]: 84.48.
In turn, MDDDYTAYHSLFLSLL [mut_04425] displayed a hit_pair_ratio of 48.27.
For the sequence MDDDYVAYHSLFLSLL [mut_04426], the hit_pair_ratio was 112.64.
In the case of MDDDYWAYHSLFLSLL [mut_04427], the hit_pair_ratio was found to be 2.20.
On to MDDDYYAYHSLFLSLL [mut_04428], for which the hit_pair_ratio was found to be 1.20.
Same read-out and setting: the value for MDDEYEAYHSLFLSLL [mut_04376] was 3.28; that for MDDFYEAYHSLFLSLL [mut_04377] was 337.92.
Same read-out and setting: the value for MDDGYEAYHSLFLSLL [mut_04378] was 3.46; that for MDDHYEAYHSLFLSLL [mut_04379] was 28.27; that for MDDKYEAYHSLFLSLL [mut_04381] was 84.82.
Consider MDDLYEAYHSLFLSLL [mut_04382], for which the hit_pair_ratio is 337.92.
Same read-out and setting: the value for MDDNYEAYHSLFLSLL [mut_04384] was 33.79.
Same read-out and setting: the same measure for MDDPYEAYHSLFLSLL [mut_04385]: 4.13; for MDDQYEAYHSLFLSLL [mut_04386]: 42.28; for MDDRYEAYHSLFLSLL [mut_04387]: 84.48.
Take MDDSYEAYHSLFLSLL [mut_04388]: the hit_pair_ratio is 4.76.
The same measure, in the same setting: the same measure for MDDTYEAYHSLFLSLL [mut_04389]: 15.92; for MDDWYEAYHSLFLSLL [mut_04391]: 51.65; for MDDYYEAYHSLFLSLL [mut_04392]: 56.39.
For the sequence MDEDYEAYHSLFLSLL [mut_04358], the hit_pair_ratio came to 3.08.
MDFDYEAYHSLFLSLL [mut_04359] displayed a hit_pair_ratio of 112.94.
Same read-out and setting: the same measure for MDGDYEAYHSLFLSLL [mut_04360]: 5.59.
With MDHDYEAYHSLFLSLL [mut_04361], the hit_pair_ratio was determined as 6.06.
Take MDIDYEAYHSLFLSLL [mut_04362]: the hit_pair_ratio amounted to 337.92.
MDLDYEAYHSLFLSLL [mut_04364]: the hit_pair_ratio came to 2.51.
The same measure, in the same setting: the same measure for MDMDYEAYHSLFLSLL [mut_04365]: 84.82.
Turning to MDNDYEAYHSLFLSLL [mut_04366], the hit_pair_ratio came to 19.88.
On the same count and under the same terms, the same measure for MDPDYEAYHSLFLSLL [mut_04367]: 337.92.
Regarding MDQDYEAYHSLFLSLL [mut_04368], the hit_pair_ratio was found to be 8.05.

The same assay, now with this note: sheet S3.B_ProP-PD_pairs; bait USP8_MIT__P40818_1_142; ratio within the wild-type/mutant pair, larger over smaller averaged fraction (direction from fraction_wt and fraction_mut).
As to MDDDYEAYHSLFLLLL, the hit_pair_ratio amounted to 4.48.
On the same count and under the same terms, the value for MDDDYEAYHSLFLMLL was 26.03.
As for MDDDYEAYHSLFLNLL, the hit_pair_ratio was determined as 33.93.
Still for that read-out and setting: the same measure for MDDDYEAYHSLFLPLL: 337.92; for MDDDYEAYHSLFLSAL: 337.92.
Still for that read-out and setting: the same measure for MDDDYEAYHSLFLSGL: 337.92; for MDDDYEAYHSLFLSHL: 84.48.
Same read-out and setting: the same measure for MDDDYEAYHSLFLSLF: 169.63.
Take MDDDYEAYHSLFLSLI: the hit_pair_ratio stood at 168.96.
Same read-out and setting: the same measure for MDDDYEAYHSLFLSLK: 19.88; for MDDDYEAYHSLFLSPL: 33.79.
The same measure, in the same setting: the same measure for MDDDYEAYHSLFLSQL: 337.92.
Still for that read-out and setting: the same measure for MDDDYEAYHSLFLSRL: 337.92.
As to MDDDYEAYHSLFLSSL, the hit_pair_ratio worked out at 337.92.
Same read-out and setting: the value for MDDDYEAYHSLFLTLL was 2.44; that for MDDDYEAYHSLFLWLL was 2.95; that for MDDDYEAYHSLFLYLL was 8.88.
The same measure, in the same setting: the same measure for MDDDYEAYHSLFVSLL: 37.55.
On the same count and under the same terms, the same measure for MDDDYEAYHSLKLSLL: 30.72; for MDDDYEAYHSLSLSLL: 337.92; for MDDDYEAYHSLYLSLL: 1.65.
Regarding MDDDYEAYHSMFLSLL, the hit_pair_ratio is given as 168.96.
The same measure, in the same setting: the same measure for MDDDYEAYHSNFLSLL: 168.96; for MDDDYEAYHSPFLSLL: 169.63; for MDDDYEAYHSRFLSLL: 172.84.
On the same count and under the same terms, the same measure for MDDDYEAYHTLFLSLL: 169.63.
As for MDDDYEAYHVLFLSLL, the hit_pair_ratio was 37.55.
Still for that read-out and setting: the value for MDDDYEAYHWLFLSLL was 1.50; that for MDDDYEAYHYLFLSLL was 1.94; that for MDDDYEAYISLFLSLL was 13.00.
On the same count and under the same terms, the same measure for MDDDYEAYKSLFLSLL: 84.48; for MDDDYEAYLSLFLSLL: 22.58.
For the sequence MDDDYEAYNSLFLSLL, the hit_pair_ratio was found to be 169.63.
On the same count and under the same terms, the value for MDDDYEAYQSLFLSLL was 28.27; that for MDDDYEAYSSLFLSLL was 33.87.
The same measure, in the same setting: the value for MDDDYEAYWSLFLSLL was 28.16; that for MDDDYEAYYSLFLSLL was 24.06; that for MDDDYEWYHSLFLSLL was 1.12.
The same measure, in the same setting: the same measure for MDDDYEYYHSLFLSLL: 2.04.
